Assays:
[1] = system: ORYSAT (Rice, Tebonnet); assay: Postemergence herbicidal evaluation; format: in vivo, Oryza sativa, (L.) Tebonnet
Method in brief: (§1)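 Seedlings grown for about two weeks were sprayed postemergence and then kept under standard greenhouse care. Injury was rated visually 4–5 weeks after treatment on a 0–9 scale against untreated controls, and ratings from repeat tests were averaged.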

[2] = system: IPOHE (Ipomoea hederacea); assay: Preemergence herbicidal evaluation; format: in vivo, (L.) Jacq.; details: rated 4-5 weeks after treatment
[3] = system: ECHCG (Echinochloa crus-galli); assay: Postemergence herbicidal evaluation; format: in vivo, (L.) Beau
Method in brief: as §1

[4] = system: ABUTH (Abutilon theophrasti); assay: Preemergence herbicidal evaluation; format: in vivo, Medic.; details: rated 4-5 weeks after treatment
[5] = system: GALAP (Galium aparine); assay: Postemergence herbicidal evaluation; format: in vivo
Method in brief: as §1

[6] = system: ORYSAT (Rice, Tebonnet); assay: Flooded paddy, post-transplant rice tolerance; format: in vivo, Oryza sativa, (L.) Tebonnet; details: flooded paddy, post-transplant rice, rated 3-4 weeks after treatment, 0-9 rating scale
Method in brief: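 Two ten-day-old Tebonnet rice seedlings transplanted into silt loam, then flooded with water held at 1.5–3 cm above soil; herbicide applied post-transplant. Plants kept in greenhouse and rated visually 0–9 versus untreated control for stand, vigor, malformation, size and chlorosis.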

[7] = system: ABUTH (Abutilon theophrasti); assay: Postemergence herbicidal evaluation; format: in vivo, Medic.
Method in brief: as §1

[8] = system: ORYSAT (Rice, Tebonnet); assay: Preemergence herbicidal evaluation; format: in vivo, Oryza sativa, (L.) Tebonnet; details: rated 4-5 weeks after treatment
[9] = system: CYPSE (Cyperus serotinus); assay: Flooded paddy, preemergence weed control; format: in vivo, Rottb.; details: rate 0.1250 kg/ha, rated 3-4 weeks after treatment, 0-9 rating scale
Method in brief: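 Seeds or propagules were planted 0.5 cm deep in silt loam and flooded to 1.5–3 cm. Compounds in 50/50 v/v aqueous/acetone were pipetted into the flood water at about 0.0080 to 0.1250 kg/ha. After 3–4 weeks in the greenhouse, effect was rated visually on a 0–9 scale versus untreated control.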

[10] = system: AMBEL (Ambrosia artemisifolia); assay: Postemergence herbicidal evaluation; format: in vivo, L.
Method in brief: as §1

[11] = system: CASOB (Cassia obtusifolia); assay: Postemergence herbicidal evaluation; format: in vivo, L.
Method in brief: as §1

[12] = system: CHEAL (Chenopodium album); assay: Postemergence herbicidal evaluation; format: in vivo, L.
Method in brief: as §1

[13] = system: SAGPY (Sagittaria pygmaea); assay: Flooded paddy, preemergence weed control; format: in vivo, L.; details: rated 3-4 weeks after treatment, 0-9 rating scale
Method in brief: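 In this preemergence paddy assay, weed seeds or organs are sown at up to 0.5 cm in silt loam and covered by 1.5–3 cm of water for the full test period. After treatment the pots are kept in a greenhouse, and herbicidal effect is rated 0-9 visually against a control.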

[14] = system: GALAP (Galium aparine); assay: Preemergence herbicidal evaluation; format: in vivo; details: rated 4-5 weeks after treatment
Method in brief: (§2)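 Greenhouse preemergence test: freshly planted cups were sprayed once with an aqueous acetone solution of compound. Injury was judged visually on a 0–9 scale relative to a control, four to five weeks later.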

[15] = system: GLXMAW (Soybean, Williams); assay: Postemergence herbicidal evaluation; format: in vivo, Glycine max, (L.) Merr. cv Williams
Method in brief: as §1

[16] = system: AMBEL (Ambrosia artemisifolia); assay: Preemergence herbicidal evaluation; format: in vivo, L.; details: rated 4-5 weeks after treatment
Method in brief: as §2

[17] = system: CASOB (Cassia obtusifolia); assay: Preemergence herbicidal evaluation; format: in vivo, L.; details: rated 4-5 weeks after treatment
Method in brief: as §2

[18] = system: CHEAL (Chenopodium album); assay: Preemergence herbicidal evaluation; format: in vivo, L.; details: rated 4-5 weeks after treatment
Method in brief: as §2

[19] = system: TRZAWR (Wheat, Winter, cv Riband); assay: Preemergence herbicidal evaluation; format: in vivo, Triticum aestivum; details: rated 4-5 weeks after treatment
Method in brief: as §2

[20] = system: ZEAMX (Corn, Field); assay: Postemergence herbicidal evaluation; format: in vivo, Zea mays, L.
Method in brief: as §1

SMILES: Cc1cccnc1-c1nsc2cc(F)c(N3C(=O)C4=C(CCCC4)C3=O)cc12 [Compound 46, N-[6-fluoro-3-(3-methyl-2-pyridyl)-1,2-benzisothiazol-5-yl]-1-cyclohexene-1,2-dicarboximide]
- Postemergence herbicidal rating, ORYSAT ([1]; rate 0.0320 kg/ha): 4.0
- Postemergence herbicidal rating, ORYSAT ([1]; rate 0.0620 kg/ha): 3.5
- Postemergence herbicidal rating, ORYSAT ([1]; rate 0.1250 kg/ha): 4.5
- Preemergence herbicidal rating IPOHE ([2]; Rate 0.0620 kg/ha): 0.0
- Preemergence herbicidal rating IPOHE ([2]; Rate 0.1250 kg/ha): 2.0
- Preemergence herbicidal rating IPOHE ([2]; Rate 0.2500 kg/ha): 9.0
- Postemergence herbicidal rating, ECHCG ([3]; rate 0.0320 kg/ha): 2.0
- Postemergence herbicidal rating, ECHCG ([3]; rate 0.0620 kg/ha): 2.0
- Postemergence herbicidal rating, ECHCG ([3]; rate 0.1250 kg/ha): 4.0
- Preemergence herbicidal rating ABUTH ([4]; Rate 0.0620 kg/ha): 5.0
- Preemergence herbicidal rating ABUTH ([4]; Rate 0.1250 kg/ha): 4.0
- Preemergence herbicidal rating ABUTH ([4]; Rate 0.2500 kg/ha): 9.0
- Postemergence herbicidal rating, GALAP ([5]; rate 0.0320 kg/ha): 4.0
- Postemergence herbicidal rating, GALAP ([5]; rate 0.0620 kg/ha): 6.0
- Postemergence herbicidal rating, GALAP ([5]; rate 0.1250 kg/ha): 5.0
- herbicidal rating, ORYSAT (rice tolerance) ([6]; rate 0.0320 kg/ha): 2.0
- herbicidal rating, ORYSAT (rice tolerance) ([6]; rate 0.1250 kg/ha): 3.0
- Postemergence herbicidal rating, ABUTH ([7]; rate 0.0320 kg/ha): 9.0
- Postemergence herbicidal rating, ABUTH ([7]; rate 0.0620 kg/ha): 9.0
- Postemergence herbicidal rating, ABUTH ([7]; rate 0.1250 kg/ha): 9.0
- Preemergence herbicidal rating ORYSAT ([8]; Rate 0.0620 kg/ha): 1.0
- Preemergence herbicidal rating ORYSAT ([8]; Rate 0.1250 kg/ha): 0.0
- Preemergence herbicidal rating ORYSAT ([8]; Rate 0.2500 kg/ha): 4.0
- herbicidal rating, CYPSE [9]: 0.0
- Postemergence herbicidal rating, AMBEL ([10]; rate 0.0320 kg/ha): 7.0
- Postemergence herbicidal rating, AMBEL ([10]; rate 0.0620 kg/ha): 9.0
- Postemergence herbicidal rating, AMBEL ([10]; rate 0.1250 kg/ha): 9.0
- Postemergence herbicidal rating, CASOB ([11]; rate 0.0320 kg/ha): 7.0
- Postemergence herbicidal rating, CASOB ([11]; rate 0.0620 kg/ha): 9.0
- Postemergence herbicidal rating, CASOB ([11]; rate 0.1250 kg/ha): 9.0
- Postemergence herbicidal rating, CHEAL ([12]; rate 0.0320 kg/ha): 6.0
- Postemergence herbicidal rating, CHEAL ([12]; rate 0.0620 kg/ha): 9.0
- Postemergence herbicidal rating, CHEAL ([12]; rate 0.1250 kg/ha): 9.0
- herbicidal rating, SAGPY ([13]; rate 0.0320 kg/ha): 0.0
- herbicidal rating, SAGPY ([13]; rate 0.1250 kg/ha): 2.0
- Preemergence herbicidal rating GALAP ([14]; Rate 0.1250 kg/ha): 0.0
- Preemergence herbicidal rating GALAP ([14]; Rate 0.2500 kg/ha): 0.0
- Postemergence herbicidal rating, GLXMAW ([15]; rate 0.0320 kg/ha): 6.0
- Postemergence herbicidal rating, GLXMAW ([15]; rate 0.0620 kg/ha): 7.5
- Postemergence herbicidal rating, GLXMAW ([15]; rate 0.1250 kg/ha): 7.5
- Preemergence herbicidal rating AMBEL ([16]; Rate 0.0620 kg/ha): 1.0
- Preemergence herbicidal rating AMBEL ([16]; Rate 0.1250 kg/ha): 6.0
- Preemergence herbicidal rating AMBEL ([16]; Rate 0.2500 kg/ha): 9.0
- Preemergence herbicidal rating CASOB ([17]; Rate 0.0620 kg/ha): 1.0
- Preemergence herbicidal rating CASOB ([17]; Rate 0.1250 kg/ha): 1.0
- Preemergence herbicidal rating CASOB ([17]; Rate 0.2500 kg/ha): 3.0
- Preemergence herbicidal rating CHEAL ([18]; Rate 0.0620 kg/ha): 7.0
- Preemergence herbicidal rating CHEAL ([18]; Rate 0.1250 kg/ha): 9.0
- Preemergence herbicidal rating CHEAL ([18]; Rate 0.2500 kg/ha): 9.0
- Preemergence herbicidal rating TRZAWR ([19]; Rate 0.0620 kg/ha): 1.0
- Preemergence herbicidal rating TRZAWR ([19]; Rate 0.1250 kg/ha): 0.0
- Preemergence herbicidal rating TRZAWR ([19]; Rate 0.2500 kg/ha): 2.0
- Postemergence herbicidal rating, ZEAMX ([20]; rate 0.0320 kg/ha): 4.5
- Postemergence herbicidal rating, ZEAMX ([20]; rate 0.0620 kg/ha): 4.5
- Postemergence herbicidal rating, ZEAMX ([20]; rate 0.1250 kg/ha): 5.5
